Results taken from US20120058920A1, “Method for Identifying Inhibitors Against Dengue Virus” (priority 2009, published 2012).
Read-outs that look alike come from different tables or passages of the source.

Test system: dengue serotype 2
Assay: Antiviral assay (dengue serotype 2), CPE inhibition in Vero cells with ATPLite luminescence readout
Type: cell-based, dengue virus
Method: 3. Antiviral assays (dengue serotype 2)
15 μl of Vero cells (1500 cells/well) were added to a 384-well white plate containing 10 μl of four-fold serially diluted testing compound in cell culture medium with 2% FCS. 15 μl of virus stock was then added to each well at a MOI of 0.1. Cell controls received only cells and medium, while virus controls received virus but no test compound. Plates were incubated at 37° C. until the viral CPE in the virus control wells reached ˜100% (5-6 days). ATPLite (Perkin Elmer) was added to all wells according to the supplier's instructions. Briefly, 40 μl of the reconstituted lyophilized substrate solution was added to each well. The plate was shaken at 700 rpm for 2 minutes and the luminescence was measured using a Viewlux apparatus (Perkin Elmer) by taking a 0.1-0.5-second integrated reading of each test plate. The results were expressed as EC50 values defined as the concentration of compound achieving 50% inhibition of the virus-reduced luminescence signals as compared with the uninfected cell control. The signal-to-noise ratio of an assay is the ratio between the mean luminescent signals of the cell controls and the virus controls. The dynamic range is defined as the ratio between the signals at the last (maximal signal) and first point in the linear range of the dose-response curve.
Intra-assay reproducibility was measured by performing each experiment in three identical plates with each concentration of drug in triplicate. Inter-assay reproducibility was measured by performing three independent experiments at different times under the same experimental conditions.

[1] = Dengue virus, Vero, accuracy of the assay, value ± spread over many measurements (# data 42-54), read-out: EC50
[2] = Dengue virus, Vero cells 1500 cells/well, MOI 0.1, 5-6 days, ATPLite, Exp. # 1, read-out: EC50 (μM) Exp. # 1
[3] = Dengue virus, Vero cells 1500 cells/well, MOI 0.1, 5-6 days, ATPLite, Exp. # 2, read-out: EC50 (μM) Exp. # 2
[4] = Dengue virus, Vero cells 1500 cells/well, MOI 0.1, 5-6 days, ATPLite, Exp. # 3, read-out: EC50 (μM) Exp. # 3
[5] = Dengue virus, Vero cells 1500 cells/well, MOI 0.1, 5-6 days, ATPLite, Exp. # 4, read-out: EC50 (μM) Exp. # 4
[6] = Dengue virus, Vero cells 1500 cells/well, MOI 0.1, 5-6 days, ATPLite, Exp. # 5, read-out: EC50 (μM) Exp. # 5
[7] = Dengue virus, Vero cells 1500 cells/well, MOI 0.1, 5-6 days, ATPLite, Exp. # 6, read-out: EC50 (μM) Exp. # 6
[8] = Dengue virus, Vero cells 1500 cells/well, MOI 0.1, 5-6 days, ATPLite, Exp. # 7, read-out: EC50 (μM) Exp. # 7

Compound | EC50 [1] [µM] | EC50 [2] [µM] | EC50 [3] [µM] | EC50 [4] [µM] | EC50 [5] [µM] | EC50 [6] [µM] | EC50 [7] [µM] | EC50 [8] [µM] | EC50 (accuracy of the assay, value ± spread over 30 measurements)
C[C@@]1(O)[C@H](O)[C@@H](CO)O[C@H]1n1ccc(N)nc1=O [2′-C-methylcytidine] | 12.6 ± 3.32 | 13.5 | 14.6 | 10.3 | 10.4 | 6.73 | 14 | 17.4 | 
O=c1cnn([C@@H]2O[C@H](CO)[C@@H](O)[C@H]2O)c(=O)[nH]1 [6-Azauridine] | 4.53 ± 0.83 | 5.52 | 4.85 | 3.74 | 4.26 | 4.6 | 3.81 | 5.14 | 
NC(=O)c1ncn([C@@H]2O[C@H](CO)[C@@H](O)[C@H]2O)n1 [Ribavirin] | 53 ± 10.2 | 52 | 53.8 | 43.8 | 42.4 | 47.7 | 69 | 67.5 | 
Interferon-α |  |  |  |  |  |  |  |  | 861.2 IU/ml ± 427.11
